The source of these data is ChEMBL document CHEMBL1150372, “Synthesis, fluorine-18 radiolabeling, and in vitro characterization of 1-iodophenyl-N-methyl-N-fluoroalkyl-3-isoquinoline carboxamide derivatives as potential PET radioligands for imaging peripheral benzodiazepine receptor” (Bioorg Med Chem, 2008).

pIC50, pKd: −log10 of the molar value.

For data set [1], the target named is Translocator protein (Rattus norvegicus, UniProt P16257). The experiment in a line: Displacement of [3H]PK11195 from PBR in rat kidney mitochondrial membrane. It is filed as cell membranes.
A short description of data set [2]: Lipophilicity, log P at pH 7.4. It is filed as physicochemical. As to conditions: buffer.
The target of data set [3] is Translocator protein (Homo sapiens, UniProt P30536). The experiment in a line: Binding affinity to human PBR.
Chain of Translocator protein (Homo sapiens, UniProt P30536) (P30536 whole entry): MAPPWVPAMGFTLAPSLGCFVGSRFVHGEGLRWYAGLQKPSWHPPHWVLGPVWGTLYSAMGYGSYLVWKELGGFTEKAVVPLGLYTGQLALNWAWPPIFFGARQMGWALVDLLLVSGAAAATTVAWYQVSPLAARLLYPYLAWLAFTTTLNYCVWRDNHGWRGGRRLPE

Chain of Translocator protein (Rattus norvegicus, UniProt P16257) (P16257 whole entry, looked up): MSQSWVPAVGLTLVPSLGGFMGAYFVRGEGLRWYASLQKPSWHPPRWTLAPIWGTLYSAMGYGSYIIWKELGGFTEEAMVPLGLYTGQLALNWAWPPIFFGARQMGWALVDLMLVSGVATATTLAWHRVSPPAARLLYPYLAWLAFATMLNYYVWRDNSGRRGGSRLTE

`CN(CCCF)C(=O)c1cc2ccccc2c(-c2ccccc2I)n1`: the pIC50 in data set [1] is 9.55. `CN(CCCF)C(=O)c1cc2ccccc2c(-c2cccc(I)c2)n1` gave a pIC50 in data set [1] of 8.85. In the case of `CN(CCCF)C(=O)c1cc2ccccc2c(-c2ccc(I)cc2)n1`, the pIC50 in data set [1] was 7.18. In data set [1], `CN(CCF)C(=O)c1cc2ccccc2c(-c2ccccc2I)n1` had a negative-log IC50 (pIC50) of 6.35.

`CN(CCC[18F])C(=O)c1cc2ccccc2c(-c2ccccc2I)n1` came in with a logD in data set [2] of 3. The compound `CCCCCCN(CCCCCC)C(=O)Cc1c(-c2ccc(F)cc2)[nH]c2ccccc12` gave a negative logarithm of the Kd (pKd) in data set [3] of 8.40. Same read-out and setting: in the case of `CN1C(=O)CN=C(c2ccc(Cl)cc2)c2cc(Cl)ccc21` [RO-54864] it was 8.22.
